# Tested on: Pseudomonas aeruginosa ATCC 27853
# Assay: In vitro bactericidal assay, P. aeruginosa ATCC 27853 (FIGS. 12-14)
# Assay type: cell-based
# Conditions: for activity in in vitro killing assays, in words / reduction of the CFU: FIG. 14; for reduction of the CFU: peptides at 150, 75, 37.5 μg/ml; for reduction of CFU/ml: highest peptide concentration
# Method: Each of the test peptides was used at 25, 12.5 6.25, and 3.12 μM. The gentamicin was used at 4 μg/ml. 1×10^6/ml Pseudomonas aeruginosa ATCC® 27853™ (American Type Culture Collection, Manassas, Va.) were incubated with the peptides, negative buffer control (tryptone saline), and positive control gentamicin for 180 minutes at pH 7.2. 50 μl aliquots were plated out on agar plates and incubated overnight. Colony forming units were counted after overnight incubation and CFU/ml calculated.
# Each of the test peptides was used at 25, 12.5, 6.25, and 3.12 μM. The gentamicin was used at 4 μg/ml. 1×10^6/ml Pseudomonas aeruginosa ATCC® 27853™ (American Type Culture Collection, Manassas, Va.) were incubated with the peptides, negative buffer control (tryptone saline), and positive control gentamicin for 180 minutes at pH 5.5. 50 μl aliquots were plated out on agar plates and incubated overnight. Colony forming units were counted after overnight incubation and CFU/ml calculated.
# FIG. 14 is a comparison of bactericidal activity of CAP37 peptides 120-146WR (SEQ ID NO:30), 120-146WH (SEQ ID NO:31), 120-146QR (SEQ ID NO:28), 120-146QH (SEQ ID NO:29), 120-146QR-5RMP (SEQ ID NO:32), and 120-146QH-5RMP (SEQ ID NO:33) for Pseudomonas aeruginosa ATCC® 27853™ (American Type Culture Collection, Manassas, Va.). 1×10^6/ml Pseudomonas aeruginosa ATCC® 27853™ were incubated with the peptides at 150, 75, and 37.5 μg/ml and negative buffer control (tryptone saline) for 180 minutes at pH 5.5. 50 μl aliquots were plated out on agar plates and incubated overnight. Colony forming units were counted after overnight incubation and CFU/ml calculated.
# For FIGS. 10-13, in vitro bactericidal assays were performed using a starting inoculum of 1×10^6 CFU/ml of the bacterial suspension. The CFU remaining at the end of the 60-180 minute incubation was determined, and the data was plotted as log reduction in CFU/ml.
# In particular, each of the test peptides (CAP37 peptides 120-146WR, 120-146WH, and 95-122 (SEQ ID NOS:30, 31, and 26, respectively)) was used at 25, 12.5, 6.25, and 3.12 μM. Gentamicin was used at 4 μg/ml. 1×10^6/ml Acinetobacter baumannii ATCC® BAA-747™ or Pseudomonas aeruginosa ATCC® 27853™ (American Type Culture Collection, Manassas, Va.) were incubated with the peptides, negative buffer control (tryptone saline), and positive control gentamicin at pH 5.5 or 7.2. A 60 minute incubation was used for Acinetobacter baumannii ATCC® BAA-747™, while a 180 minute incubation was used for Pseudomonas aeruginosa ATCC® 27853™. 50 μl aliquots were plated out on agar plates and incubated overnight. Colony forming units were counted after overnight incubation and CFU/ml calculated.
# For FIG. 14, 1×10^6/ml Pseudomonas aeruginosa ATCC® 27853™ were incubated with each of the test peptides (CAP37 peptides 120-146WR, 120-146WH, 120-146QR, 120-146QH, 120-146QR-5RMP, and 120-146QH-5RMP (SEQ ID NOS:30, 31, 28, 29, 32, and 33, respectively)) at 150, 75, and 37.5 μg/ml, or negative buffer control (tryptone saline), for 180 minutes at pH 5.5. 50 μl aliquots were plated out on agar plates and incubated overnight. Colony forming units were counted after overnight incubation and CFU/ml calculated.
# [1] = pH 7.2, 180 minutes, 120-146WR/WH at 25 μM, 95-122 at 3.12-25 μM
Sequence,"activity in in vitro killing assays, in words (pH 5.5, 180 minutes)","reduction of the CFU (pH 5.5, 180 minutes)","bactericidal activity, in words [1]","reduction of CFU/ml (pH 7.2, 180 minutes)","bactericidal activity, in words (120-146WR at 25 μM, gentamicin 4 μg/ml)","bactericidal activity, in words (pH 5.5, 180 minutes, peptides 3.12-25 μM, gentamicin 4 μg/ml)"
GTRCQVAGWGSWHSGGRLSRFPRFVNV (derivative of peptide of CAP37 protein) [Peptide 120-146WH],strongly active,6 logs,as effective as the standard antibiotic gentamicin,6 logs,,
GTRCQVAGWGSWRSGGRLSRFPRFVNV (derivative of peptide of Homo sapiens CAP37 protein) [Peptide 120-146WR],strongly active,6 logs,as effective as the standard antibiotic gentamicin,6 logs,highly active,
LDREANLTSSVTILPLPLQNATVEAGTR (listed as Homo sapiens) [Peptide 95-122],,,not active,,,not active

# Reference: patent US11884710B2, “Peptide compounds and methods of use in wound healing” (priority 2013, dated 2024)
